Measurements from ChEMBL document CHEMBL4118138, “Discovery of novel 2-[(4-hydroxy-6-oxo-2,3-dihydro-1H-pyridine-5-carbonyl)amino]acetic acid derivatives as HIF prolyl hydroxylase inhibitors for treatment of renal anemia” (Bioorg Med Chem Lett, 2018).
The source made the active and inactive calls. The rule behind the calls is not given here.

Columns and labels:
[1] = Half life in patient administered as qd; type: ADME, organism-based; conditions: human, in vivo
[2] = Effective half life in Sprague-Dawley rat at 1 mg/kg, iv; type: ADME, organism-based; conditions: in vivo, read-out: t1/2eff (converted)
Mus musculus [3] = experiment: In vivo inhibition of PHD2 in Balb/c mouse assessed as EPO levels in serum at 40 mg/kg, po after 6 hrs by ELISA; type: functional
[4] = Protein binding in human serum at 1 ug/ml after 4 hrs by equilibrium dialysis method; type: ADME, cell-free; conditions: read-out: PB (converted)
[5] = Protein binding in Sprague-Dawley rat serum at 1 ug/ml after 4 hrs by equilibrium dialysis method; type: ADME, cell-free; conditions: read-out: PB (converted)
[6] = Drug metabolism in Sprague-Dawley rat hepatocytes assessed as oxidative metabolism at 1 uM after 1 hr by LC-MS/MS method; type: ADME, cell-based, Hepatocyte; conditions: read-out: Drug metabolism
Rattus norvegicus [7] = experiment: In vivo inhibition of PHD2 in Sprague-Dawley rat assessed as increase in EPO levels in serum at 100 mg/kg, po after 6 hrs by ELISA; type: functional, organism-based
Mus musculus [8] = experiment: In vivo inhibition of PHD2 in Balb/c mouse assessed as EPO levels in serum at 100 mg/kg, po after 6 hrs by ELISA; type: functional
Homo sapiens = experiment: Terminal half life in patient with hepatic impairment at 100 mg, po; type: ADME, organism-based; conditions: in vivo
[9] = Protein binding in beagle dog plasma at 0.3 ug/ml after 8 hrs by equilibrium dialysis method; type: ADME, cell-free, Canis lupus familiaris; conditions: read-out: PPB (converted)
[10] = Drug metabolism in human hepatocytes assessed as oxidative metabolism at 1 uM after 4 hrs by LC-MS/MS method; type: ADME, cell-based, Hepatocyte; conditions: read-out: Drug metabolism
[11] = Protein binding in human plasma at 0.3 ug/ml after 8 hrs by equilibrium dialysis method; type: ADME, cell-free; conditions: read-out: PPB (converted)
[12] = Drug metabolism in Sprague-Dawley rat hepatocytes assessed as oxidative metabolism at 1 uM after 4 hrs by LC-MS/MS method; type: ADME, cell-based, Hepatocyte; conditions: read-out: Drug metabolism
[13] = Protein binding in Sprague-Dawley rat plasma at 0.3 ug/ml after 8 hrs by equilibrium dialysis method; type: ADME, cell-free; conditions: read-out: PPB (converted)
[14] = Drug metabolism in beagle dog hepatocytes assessed as oxidative metabolism at 1 uM after 4 hrs by LC-MS/MS method; type: ADME, cell-based, Canis lupus familiaris, Hepatocyte; conditions: read-out: Drug metabolism
[15] = Total clearance in beagle dog at 1 mg/kg, iv by LC-MS/MS method; type: ADME, organism-based, Canis lupus familiaris; conditions: in vivo
Rattus norvegicus [16] = experiment: In vivo inhibition of PHD2 in Sprague-Dawley rat assessed as EPO levels in serum at 40 mg/kg, po after 8 hrs by ELISA; type: functional
[17] = Half life in beagle dog at 5 mg/kg, po by LC-MS/MS method; type: ADME, organism-based, Canis lupus familiaris; conditions: in vivo
[18] = Half life in beagle dog at 1 mg/kg, iv by LC-MS/MS method; type: ADME, organism-based, Canis lupus familiaris; conditions: in vivo
[19] = Tmax in beagle dog at 5 mg/kg, po by LC-MS/MS method; type: ADME, organism-based, Canis lupus familiaris; conditions: in vivo
[20] = Half life in Sprague-Dawley rat at 1 mg/kg, iv by LC-MS/MS method; type: ADME, organism-based; conditions: in vivo
[21] = Volume of distribution at steady state in beagle dog at 1 mg/kg, iv by LC-MS/MS method; type: ADME, organism-based, Canis lupus familiaris; conditions: in vivo, read-out: Vdss
[22] = Oral bioavailability in Sprague-Dawley rat at 10 mg/kg by LC-MS/MS method; type: ADME, organism-based; conditions: in vivo
[23] = Cmax in Sprague-Dawley rat at 10 mg/kg, po by LC-MS/MS method; type: ADME, organism-based; parameters: dose 10 mg/kg, route oral; conditions: in vivo
[24] = Total clearance in Sprague-Dawley rat at 1 mg/kg, iv by LC-MS/MS method; type: ADME, organism-based; conditions: in vivo
Egl nine homolog 1 = Egl nine homolog 1 (Rattus norvegicus, UniProt P59722); experiment: Inhibition of rat PHD2 using FITC-HIF1-alpha as substrate after 10 mins in presence of 2-oxoglutarate by fluorescence polarization assay
Sequence of Egl nine homolog 1 (P59722 whole entry): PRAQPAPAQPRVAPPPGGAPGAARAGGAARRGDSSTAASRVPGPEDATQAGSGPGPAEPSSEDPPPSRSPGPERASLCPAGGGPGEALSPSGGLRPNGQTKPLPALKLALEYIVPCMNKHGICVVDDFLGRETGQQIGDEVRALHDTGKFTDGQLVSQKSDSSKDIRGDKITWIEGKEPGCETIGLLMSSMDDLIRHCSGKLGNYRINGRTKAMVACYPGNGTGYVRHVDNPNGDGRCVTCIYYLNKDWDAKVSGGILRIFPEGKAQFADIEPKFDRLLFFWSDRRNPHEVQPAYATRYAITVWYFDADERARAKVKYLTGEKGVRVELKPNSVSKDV

[25] = Volume of distribution at steady state in Sprague-Dawley rat at 1 mg/kg, iv by LC-MS/MS method; type: ADME, organism-based; conditions: in vivo, read-out: Vdss
[26] = Cmax in beagle dog at 5 mg/kg, po by LC-MS/MS method; type: ADME, organism-based, Canis lupus familiaris; parameters: dose 5 mg/kg, route oral; conditions: in vivo
[27] = Half life in Sprague-Dawley rat at 10 mg/kg, po by LC-MS/MS method; type: ADME, organism-based; conditions: in vivo
[28] = Oral bioavailability in beagle dog at 5 mg/kg by LC-MS/MS method; type: ADME, organism-based, Canis lupus familiaris; conditions: in vivo
[29] = Tmax in Sprague-Dawley rat at 10 mg/kg, po by LC-MS/MS method; type: ADME, organism-based; conditions: in vivo

SMILES: O=C(O)CNC(=O)c1ncc(-c2cccc(Cl)c2)cc1O [VADADUSTAT]
- half-life [1]: 4.5 h

SMILES: O=C([O-])CNC(=O)C1=C(O)CCN(Cc2ccc(OCCC3CC3)cc2)C1=O.[Na+]
- half-life [2]: 0.46 h
- serum EPO level (Mus musculus [3]): 8163 pg/mL

SMILES: O=C(O)CNC(=O)C1C(=O)N(C2CCCCC2)C(=O)N(C2CCCCC2)C1=O [DAPRODUSTAT]
- half-life [1]: 2.7 h

SMILES: O=C(O)CNC(=O)C1=C(O)CCN(Cc2ccc(C(F)(F)F)cc2)C1=O
- half-life [2]: 4.9 h

SMILES: Cc1ccc(Oc2ccc(CN3CCC(O)=C(C(=O)NCC(=O)[O-])C3=O)nc2)cc1.[Na+]
- serum EPO level (Mus musculus [3]): 1488 pg/mL

SMILES: O=C(O)CNC(=O)C1=C(O)CC2(CCC2)N(Cc2ccc(-c3ccccc3)cc2)C1=O
- fraction unbound at 4 h, 1 ug/ml [4]: 0.005
- fraction unbound at 4 h, 1 ug/ml [5]: < 0.006
- metabolised at 1 h, 1 µM [6]: 13%

SMILES: CC1CC(O)=C(C(=O)NCC(=O)O)C(=O)N1Cc1ccc(-c2ccccc2)cc1 (centres undefined)
- fraction unbound at 4 h, 1 ug/ml [4]: < 0.006
- fraction unbound at 4 h, 1 ug/ml [5]: < 0.006
- metabolised at 1 h, 1 µM [6]: 3.8%

SMILES: O=C(O)CNC(=O)C1=C(O)CCN(Cc2ccc(OC(F)(F)F)cc2)C1=O
- half-life [2]: 2.8 h

SMILES: O=C([O-])CNC(=O)C1=C(O)CCN(Cc2ccc(OC3CC3)cc2)C1=O.[Na+]
- half-life [2]: 0.55 h

SMILES: CC1CN(Cc2ccc(-c3ccccc3)cc2)C(=O)C(C(=O)NCC(=O)O)=C1O (centres undefined)
- fraction unbound at 4 h, 1 ug/ml [4]: < 0.005
- fraction unbound at 4 h, 1 ug/ml [5]: < 0.005
- metabolised at 1 h, 1 µM [6]: 6%

SMILES: O=C([O-])CNC(=O)C1=C(O)CCN(Cc2ccc(OCCC3CC3)cn2)C1=O.[Na+]
- serum EPO level (Mus musculus [3]): 471 pg/mL

SMILES: O=C(O)CNC(=O)C1=C(O)CC2(CCCCC2)N(Cc2ccc(-c3ccccc3)cc2)C1=O
- fraction unbound at 4 h, 1 ug/ml [4]: < 0.006
- fraction unbound at 4 h, 1 ug/ml [5]: < 0.006
- Activity (Rattus norvegicus [7]): inactive
- metabolised at 1 h, 1 µM [6]: 31.3%
- Activity (Mus musculus [8]): 2323 pg/mL

SMILES: Cc1nc(C(=O)NCC(=O)O)c(O)c2ccc(Oc3ccccc3)cc12 [ROXADUSTAT]
- beta t1/2 (Homo sapiens): 13 h

SMILES: O=C([O-])CNC(=O)C1=C(O)CCN(Cc2ccc(Oc3ccc(Cl)cc3)nc2)C1=O.[Na+]
- fraction unbound at 8 h, 0.3 ug/ml [9]: 0.011
- metabolised at 4 h, 1 µM [10]: 5.7%
- fraction unbound at 8 h, 0.3 ug/ml [11]: 0.009
- metabolised at 4 h, 1 µM [12]: 0.9%
- fraction unbound at 8 h, 0.3 ug/ml [13]: 0.011
- metabolised at 4 h, 1 µM [14]: -0.3%
- serum EPO level (Mus musculus [3]): 8371 pg/mL

SMILES: O=C(O)CNC(=O)C1=C(O)CCN(Cc2ccc(Oc3ccc(Cl)cc3)nc2)C1=O
- clearance [15]: 3.28 mL/min/kg
- Activity (Rattus norvegicus [16]): 3003 pg/mL
- half-life [17]: 3.5 h
- half-life [18]: 4.7 h
- Tmax [19]: 0.75 h
- half-life [20]: 3.1 h
- Vd [21]: 0.231 L/kg
- bioavailability [22]: 82.8%
- Cmax [23]: 10700 ng/mL
- clearance [24]: 7.28 mL/min/kg
- IC50 (Egl nine homolog 1): 0.018 µM
- Vd [25]: 0.904 L/kg
- Cmax [26]: 6980 ng/mL
- half-life [2]: 1.5 h
- half-life [27]: 2.3 h
- bioavailability [28]: 52.8%
- Tmax [29]: 0.25 h

SMILES: O=C(O)CNC(=O)C1=C(O)CCN(Cc2ccc(OCC3CC3)cc2)C1=O
- half-life [2]: 1.4 h
- serum EPO level (Mus musculus [3]): 6258 pg/mL

SMILES: O=C(O)CNC(=O)C1=C(O)CCN(Cc2ccc(-c3ccccc3)cc2)C1=O
- fraction unbound at 4 h, 1 ug/ml [4]: 0.011
- fraction unbound at 4 h, 1 ug/ml [5]: 0.007
- metabolised at 1 h, 1 µM [6]: 34.4%

SMILES: Cc1ccc(Oc2ccc(CN3CCC(O)=C(C(=O)NCC(=O)O)C3=O)cn2)cc1
- half-life [2]: 0.72 h
- serum EPO level (Mus musculus [3]): 3497 pg/mL

SMILES: O=C([O-])CNC(=O)C1=C(O)CCN(Cc2ccc(OCCC3CC3)nc2)C1=O.[Na+]
- half-life [2]: 0.42 h
- serum EPO level (Mus musculus [3]): 7530 pg/mL

SMILES: Cc1ccc(Oc2ccc(CN3CCC(O)=C(C(=O)NCC(=O)O)C3=O)cc2)cc1
- half-life [2]: 0.52 h
- serum EPO level (Mus musculus [3]): 4441 pg/mL
